Test results taken from patent US9364551B2, “Light-enabled drug delivery” (Virginia Commonwealth University, priority 2011, dated 2016).
Where a name gives a salt, the structure may show the parent alone. Read-outs that look alike come from different tables or passages of the source. Where no end group is shown, it is not given here. [ ]: non-standard residue; d: D form. bis‑iodoacetamido azobenzene = bis-iodoacetamido azobenzene crosslinker; Aib = CC(C)(N)C(=O)O

Key:
[1] = CD spectra of photoswitching; format: physicochemical
[2] = HPLC monitoring of azobenzene cis to trans thermal relaxation after illumination; format: physicochemical; details: fit to exponential decay
Text: We also monitored the switching of the azobenzene by HPLC, since we were able to separate both the cis and trans peptide isomers (FIG. 19B). After illumination the cis isomer reverted to the trans isomer over time. […] The half-life is in line with measurements of similar peptides, but the % cis is lower than the typical 80-95%. Use of a filter to eliminate the longer wavelength light (our light source has a spike of intensity at 405 nm which can promote cis to trans reversion) would enhance photoswitching upon irradiation.

[3] = test system: JH-EsoAd1 cells; experiment: Concentration dependent cell viability (MTT assay); format: cell-based
Description: (§1) The Esophageal cancer cell line (JH-EsoAd1) was cultured at 37° C. and in a humidified atmosphere of 5% CO2 in RPMI 1640 medium supplemented with 10% fetal bovine serum (FBS). For 96 well plate experiments, the JH-EsoAd1 cells were seeded at 4450 cells/well in 100 uL of media in 96 well plates; experiments were carried out one day after seeding. MTT assays were analyzed using a Bio-Tex μQuant plate reader at 562 nm. FACS was performed BD FACS Aria II using BD FACS Diva software at the VCU Flow Cytometry Core Facility. A minimum of 20,000 cells within the gated region were analyzed. Confocal microscopy images were acquired at room temperature with a Leica confocal laser scanning microscope.
(§2) JH-EsoAd1 cells were treated with media alone, media supplemented with EDANS (20 μM), or media supplemented with Dox-EDANS (9) (20 μM) in a 96 well clear-bottom, opaque plate. Cells were exposed to light (9 mW/cm^2) for various times (0-40 min) regulated by an aluminum foil mask. During the experiment the plate was kept in ice to reduce the heating by the UV lamp. After the lamp was turned off, the plate was covered with foil and placed at room temperature for an additional 80 min. The media was removed, and the cells were thoroughly washed with media (3×); then 200 μL of fresh media was added to each well. The plates were incubated for 72 hours at 37° C., following which the media was removed and 100 µL of MTT (2 mg/ml) in phosphate buffered saline (PBS) was added to each well. After 3 hours, the MTT solution was removed and replaced with 100 μL of DMSO. The absorbance at 562 nm was analyzed via a plate reader.
JH-EsoAd1 cells were treated with media supplemented with various concentrations of doxorubicin (0-6.4 μM) or Dox-EDANS (9) (0-16 μM) in a 96 well clear-bottom, opaque plate. Control wells were covered with aluminum foil while the remaining wells were exposed UV light (9 mW/cm^2) for 20 min. The plate was kept in ice during light exposure in order to minimize the heating. After irradiation, the plate was kept at it in the dark for another 100 minutes. […]

[4] = Photolytic release of doxorubicin from drug conjugate (RP-HPLC); format: physicochemical; details: PBS buffer, UV light 365 nm (9.0 mW/cm^2), 0.5-30 min
Description: The photolytic release of doxorubicin from the drug conjugate was analyzed using HPLC. The drug conjugate was dissolved in PBS buffer and was exposed to UV light at 365 nm (9.0 mW/cm^2). Aliquots of the reaction mixture were collected at various times and were analyzed on RP-HPLC.
A solution (0.065 mM in 1 mL) of compound 6 in PBS was placed in a 60×15 mm well plastic dish placed on ice. The solution was irradiated and 70 μL was removed at various time points (0.5, 1, 2, 4, 8, 15, 20, and 30 minutes). Each assay was analyzed on RP-HPLC using isocratic elution of 20% organic eluent (0.1% TFA in acetonitrile) for 5 minutes and then using gradient elution from 20% to 70% for 30 minutes and was monitored at λabs=480 nm. (See FIG. 14).

[5] = test system: JH-EsoAd1 cells; experiment: Confocal microscopic analysis of permeability; format: cell-based; details: 10 μM, light-treated cells vs dark
Description: as §1
JH-EsoAd1 cells were seeded at 30,000 cells/well on 4 well glass chamber slides, and were treated as above (Flow cytometry analysis). The cells were treated with media alone or media supplemented with 10 μM of EDANS-Dox (6). The plate was placed on ice, and the light treated cells were exposed to UV light (9 mW/cm^2) for 20 minutes. Following the light exposure the plates were kept at room temperature for 100 minutes. The cells were washed extensively with PBS and fixed for 15 min at 37° C. with 3% paraformaldehyde in PBS. Slides were rinsed, dried and mounted under coverslips using Vectashield mounting media (Vector Laboratories, Inc.).

[6] = test system: JH-EsoAd1 cells; experiment: Illumination time-dependent toxicity (MTT assay); format: cell-based
Description: as §1
as §2, with “The plates were incubated for 72 hours at 37° C., following which the media was removed and 100 µL of MTT (2 mg/ml) in phosphate buffered saline (PBS) was added to each well. After 3 hours, the MTT solution was removed and replaced with 100 μL of DMSO.” left out

*CRACARVXAACRAAARQ (RACARV[Aib]AACRAAARQ; linker (positions not given here) via bis‑iodoacetamido azobenzene; not fully specified (N-terminus, bridges); also: bis-iodoacetamido azobenzene crosslink, Cys pair not given here) [Peptide 1, arginine-rich photoswitchable peptide, cysteines crosslinked with bis-iodoacetamido azobenzene; X=2-aminoisobutyric acid]
conformation upon irradiation (CD) ([1]; 370 nm light, 25° C., illumination for 5 min): more α-helical
conformation after removal of light (CD) ([1]; after 30 minutes in the dark): reverted mostly back to the more random coiled state
percentage of cis isomer upon illumination [2]: 55%

COc1cccc2c1C(=O)c1c(O)c3c(c(O)c1C2=O)C[C@@](O)(C(=O)CO)C[C@@H]3O[C@H]1C[C@H](N)[C@H](O)[C@H](C)O1 [Dox, Doxorubicin Hydrochloride, reference compound]
IC50 ([3]; Dox alone, read-out: IC50 of Dox alone with the JH-EsoAd1 cells): 1 ± 0.4 µM

COc1cc(C(C)OC(=O)NC2C[C@H](OC3C[C@](O)(C(=O)CO)Cc4c(O)c5c(c(O)c43)C(=O)c3c(OC)cccc3C5=O)C[C@@H](C)[C@H]2O)c([N+](=O)[O-])cc1OCCCC(=O)NCc1cn(-c2ccc(C(=O)NCCNc3cccc4c(S(=O)(=O)O)cccc34)cc2)nn1 (stereo partly shown) [EDANS-Dox, Photocaged-Cell Impermeable Dox. Conjugate]
IC50 ([3]; 20 min, illumination 365 nm, 9.0 mW/cm^2, 20 min, read-out: IC50, cytotoxicity upon illumination): 1.6 ± 1 µM
toxicity to the cells in the dark ([3]; in the dark, at the highest value tested (16 µM)): not toxic
photolytic release of doxorubicin [4]: time-depended drug release in the presence of light
Dox fluorescence in the nucleus (confocal) [5]: only light-treated cells show significant Dox fluorescence in the nucleus
Survival of cells in the dark ([6]; in the dark): equivalent to controls with no drug added
Cell survival with increased illumination ([6]; light 9 mW/cm^2, 0-40 min): decreased survival
